Mutagenic call data for 4 molecules are collected here from PubChem BioAssay AID1259407 (Chemical Carcinogenesis Research Information System (CCRIS), 2018).

Calls of active or inactive are those of the source. The rule behind the calls is not given here.

The data set relates to CCRIS mutagenicity, Ames/micronucleus/aberration tests. The experiment in a line: CCRIS mutagenicity studies.
Setting [1] is: Test System: AMES SALMONELLA TYPHIMURIUM, Strain/Indicator: TA98, Metabolic Activation: NONE, Method: STANDARD PLATE.
Setting [2] is: Test System: AMES SALMONELLA TYPHIMURIUM, Strain/Indicator: TA100, Metabolic Activation: NONE, Method: STANDARD PLATE.
[3] abbreviates: Test System: AMES SALMONELLA TYPHIMURIUM, Strain/Indicator: TA97, Metabolic Activation: NONE, Method: STANDARD PLATE.
[4] abbreviates: Test System: AMES SALMONELLA TYPHIMURIUM, Strain/Indicator: TA97, Metabolic Activation: RAT, LIVER, S-9, AROCLOR 1254, Method: STANDARD PLATE.
Where [5] appears, read: Test System: AMES SALMONELLA TYPHIMURIUM, Strain/Indicator: TA98, Metabolic Activation: RAT, LIVER, S-9, AROCLOR 1254, Method: STANDARD PLATE.
[6] abbreviates: Test System: AMES SALMONELLA TYPHIMURIUM, Strain/Indicator: TA100, Metabolic Activation: RAT, LIVER, S-9, AROCLOR 1254, Method: STANDARD PLATE.
Setting [7] is: Test System: AMES SALMONELLA TYPHIMURIUM, Strain/Indicator: TA102, Metabolic Activation: NONE, Method: STANDARD PLATE.
The mark [8] stands for this setting: Test System: AMES SALMONELLA TYPHIMURIUM, Strain/Indicator: TA102, Metabolic Activation: RAT, LIVER, S-9, AROCLOR 1254, Method: STANDARD PLATE.

Take `Nc1nc2c(ncn2[C@@H]2C=C[C@H](CO)C2)c(=O)[nH]1`: the mutagenic call is, setting by setting: (Test System: AMES SALMONELLA TYPHIMURIUM, Strain/Indicator: TA98, Metabolic Activation: HAMSTER, LIVER, S-9, AROCLOR 1254 (10%), Method: STANDARD PLATE) “inactive; negative”; under setting [1], “inactive; negative”; (Test System: AMES SALMONELLA TYPHIMURIUM, Strain/Indicator: TA98, Metabolic Activation: RAT, LIVER, S-9, AROCLOR 1254 (10%), Method: STANDARD PLATE) “inactive; negative”; (Test System: AMES SALMONELLA TYPHIMURIUM, Strain/Indicator: TA100, Metabolic Activation: HAMSTER, LIVER, S-9, AROCLOR 1254 (10%), Method: STANDARD PLATE) “inactive; negative”; under setting [2], “inactive; negative”; (Test System: AMES SALMONELLA TYPHIMURIUM, Strain/Indicator: TA100, Metabolic Activation: RAT, LIVER, S-9, AROCLOR 1254 (10%), Method: STANDARD PLATE) “inactive; negative”. The mutagenic call was “inactive; negative” (Test System: AMES SALMONELLA TYPHIMURIUM, Strain/Indicator: TA1535, Metabolic Activation: HAMSTER, LIVER, S-9, AROCLOR 1254 (10%), Method: STANDARD PLATE); “inactive; negative” (Test System: AMES SALMONELLA TYPHIMURIUM, Strain/Indicator: TA1535, Metabolic Activation: NONE, Method: STANDARD PLATE); “inactive; negative” (Test System: AMES SALMONELLA TYPHIMURIUM, Strain/Indicator: TA1535, Metabolic Activation: RAT, LIVER, S-9, AROCLOR 1254 (10%), Method: STANDARD PLATE); “inactive; negative” (Test System: AMES SALMONELLA TYPHIMURIUM, Strain/Indicator: TA1537, Metabolic Activation: HAMSTER, LIVER, S-9, AROCLOR 1254 (10%), Method: STANDARD PLATE); “inactive; negative” (Test System: AMES SALMONELLA TYPHIMURIUM, Strain/Indicator: TA1537, Metabolic Activation: NONE, Method: STANDARD PLATE); “inactive; negative” (Test System: AMES SALMONELLA TYPHIMURIUM, Strain/Indicator: TA1537, Metabolic Activation: RAT, LIVER, S-9, AROCLOR 1254 (10%), Method: STANDARD PLATE). For the same molecule, the mutagenic call was “inactive; negative” (Test System: AMES SALMONELLA TYPHIMURIUM, Strain/Indicator: TA1538, Metabolic Activation: HAMSTER, LIVER, S-9, AROCLOR 1254 (10%), Method: STANDARD PLATE); “inactive; negative” (Test System: AMES SALMONELLA TYPHIMURIUM, Strain/Indicator: TA1538, Metabolic Activation: NONE, Method: STANDARD PLATE); “inactive; negative” (Test System: AMES SALMONELLA TYPHIMURIUM, Strain/Indicator: TA1538, Metabolic Activation: RAT, LIVER, S-9, AROCLOR 1254 (10%), Method: STANDARD PLATE); “inactive; negative. reevaluation of results: inconclusive” (Test System: MOUSE LYMPHOMA, Strain/Indicator: L5178Y (TK+/TK-), Metabolic Activation: NONE, Method: SUSPENSION/PLATE); “active; positive; reevaluation of results: positive” (Test System: MOUSE LYMPHOMA, Strain/Indicator: L5178Y (TK+/TK-), Metabolic Activation: RAT, LIVER, S-9, AROCLOR 1254, Method: SUSPENSION/PLATE); “inactive; negative” (Test System: Mouse lymphoma, Strain/Indicator: L5178Y (tk+/tk-), Metabolic Activation: None, Method: Suspension/plate). Also, the mutagenic call (Test System: Mouse lymphoma, Strain/Indicator: L5178Y (tk+/tk-), Metabolic Activation: Rat, Liver, S-9, Aroclor 1254, Method: Suspension/plate) was “inactive; negative”.

Turning to `Clc1ccc(-c2nc3ccccc3o2)cc1`, the mutagenic call reads like this: under setting [1], “inactive; negative”; (Test System: AMES SALMONELLA TYPHIMURIUM, Strain/Indicator: TA98, Metabolic Activation: S-9, Method: STANDARD PLATE) “inactive; negative”.

Turning to `Cc1cccnc1`, the mutagenic call was “inactive; negative” under setting [3]; “inactive; negative” under setting [4]; “inactive; negative” under setting [1]; “inactive; negative” under setting [5]; “inactive; negative” under setting [2]; “inactive; negative” under setting [6]. The mutagenic call is, setting by setting: under setting [7], “inactive; negative”; under setting [8], “inactive; negative”.

In the case of `CCCCC(CC)COC(=O)CCCCC(=O)O` (stereo not drawn), the mutagenic call reads like this: under setting [3], “inactive; negative”; under setting [4], “inactive; negative”; (Test System: AMES SALMONELLA TYPHIMURIUM, Strain/Indicator: TA97, Metabolic Activation: RAT, LIVER, S-9, DI(2-ETHYLHEXYL)PHTHALATE, Method: STANDARD PLATE) “inactive; negative”; (Test System: AMES SALMONELLA TYPHIMURIUM, Strain/Indicator: TA98, Metabolic Activation: HAMSTER, LIVER, S-9, AROCLOR 1254 (10%), Method: PREINCUBATION) “inactive; negative”; (Test System: AMES SALMONELLA TYPHIMURIUM, Strain/Indicator: TA98, Metabolic Activation: NONE, Method: PREINCUBATION) “inactive; negative”; under setting [1], “inactive; negative”. Further, the mutagenic call reads like this: (Test System: AMES SALMONELLA TYPHIMURIUM, Strain/Indicator: TA98, Metabolic Activation: RAT, LIVER, S-9, AROCLOR 1254 (10%), Method: PREINCUBATION) “inactive; negative”; under setting [5], “inactive; negative”; (Test System: AMES SALMONELLA TYPHIMURIUM, Strain/Indicator: TA98, Metabolic Activation: RAT, LIVER, S-9, DI(2-ETHYLHEXYL)PHTHALATE, Method: STANDARD PLATE) “inactive; negative”; (Test System: AMES SALMONELLA TYPHIMURIUM, Strain/Indicator: TA100, Metabolic Activation: HAMSTER, LIVER, S-9, AROCLOR 1254 (10%), Method: PREINCUBATION) “inactive; negative”; (Test System: AMES SALMONELLA TYPHIMURIUM, Strain/Indicator: TA100, Metabolic Activation: NONE, Method: PREINCUBATION) “inactive; negative”; under setting [2], “inactive; negative”. Moreover, the mutagenic call was “inactive; negative” (Test System: AMES SALMONELLA TYPHIMURIUM, Strain/Indicator: TA100, Metabolic Activation: RAT, LIVER, S-9, AROCLOR 1254 (10%), Method: PREINCUBATION); “inactive; negative” under setting [6]; “inactive; negative” (Test System: AMES SALMONELLA TYPHIMURIUM, Strain/Indicator: TA100, Metabolic Activation: RAT, LIVER, S-9, DI(2-ETHYLHEXYL)PHTHALATE, Method: STANDARD PLATE); “inactive; negative” under setting [7]; “inactive; negative” under setting [8]; “inactive; negative” (Test System: AMES SALMONELLA TYPHIMURIUM, Strain/Indicator: TA102, Metabolic Activation: RAT, LIVER, S-9, DI(2-ETHYLHEXYL)PHTHALATE, Method: STANDARD PLATE). Also, the mutagenic call reads like this: (Test System: AMES SALMONELLA TYPHIMURIUM, Strain/Indicator: TA1535, Metabolic Activation: HAMSTER, LIVER, S-9, AROCLOR 1254 (10%), Method: PREINCUBATION) “inactive; negative”; (Test System: AMES SALMONELLA TYPHIMURIUM, Strain/Indicator: TA1535, Metabolic Activation: NONE, Method: PREINCUBATION) “inactive; negative”; (Test System: AMES SALMONELLA TYPHIMURIUM, Strain/Indicator: TA1535, Metabolic Activation: RAT, LIVER, S-9, AROCLOR 1254 (10%), Method: PREINCUBATION) “inactive; negative”; (Test System: AMES SALMONELLA TYPHIMURIUM, Strain/Indicator: TA1537, Metabolic Activation: HAMSTER, LIVER, S-9, AROCLOR 1254 (10%), Method: PREINCUBATION) “inactive; negative”; (Test System: AMES SALMONELLA TYPHIMURIUM, Strain/Indicator: TA1537, Metabolic Activation: NONE, Method: PREINCUBATION) “inactive; negative”; (Test System: AMES SALMONELLA TYPHIMURIUM, Strain/Indicator: TA1537, Metabolic Activation: RAT, LIVER, S-9, AROCLOR 1254 (10%), Method: PREINCUBATION) “inactive; negative”.
